Measured values: patent US12428430B2 (BRISTOL-MYERS SQUIBB COMPANY, priority 2018, dated 2025)

Target: hLPA1 (Homo sapiens, UniProt Q92633)
Assay: LPA1 functional antagonist assay (LPA-induced calcium flux in CHO cells overexpressing human LPA1)
Assay type: cell-based
Design: expressed in transfected cells; host or cells: Chinese hamster ovary (CHO) cells
Conditions: antagonist mode, inhibition of calcium flux induced by 10 nM LPA, read-out: hLPA1 IC50
Protocol: The effectiveness of compounds of the present invention as LPA1 inhibitors can be determined in an LPA1 functional antagonist assay as follows:
Chinese hamster ovary cells overexpressing human LPA1 were plated overnight (15,000 cells/well) in poly-D-lysine coated 384-well microplates (Greiner bio-one, Cat #781946) in DMEM/F12 medium (Gibco, Cat #11039). Following overnight culture, cells were loaded with calcium indicator dye (AAT Bioquest Inc, Cat #34601) for 30 minutes at 37° C. The cells were then equilibrated to room temperature for 30 minutes before the assay. Test compounds solubilized in DMSO were transferred to 384 well non-binding surface plates (Corning, Cat #3575) using the Labcyte Echo acoustic dispense and diluted with assay buffer [1×HBSS with calcium/magnesium (Gibco Cat #14025-092), 20 mM HEPES (Gibco Cat #15630-080) and 0.1% fatty acid free BSA (Sigma Cat #A9205)] to a final concentration of 0.5% DMSO. Diluted compounds were added to the cells by FDSS6000 (Hamamatsu) at final concentrations ranging from 0.08 nM to 5 μM. and were then incubated for 20 min at room temperature at which time LPA (Avanti Polar Lipids Cat #857130C) was added at final concentrations of 10 nM to stimulate the cells. The compound IC50 value was defined as the concentration of test compound which inhibited 50% of the calcium flux induced by LPA alone. IC50 values were determined by fitting data to a 4-parameter logistic equation (GraphPad Prism, San Diego Calif.).

Sequence of hLPA1 (Q92633 whole entry): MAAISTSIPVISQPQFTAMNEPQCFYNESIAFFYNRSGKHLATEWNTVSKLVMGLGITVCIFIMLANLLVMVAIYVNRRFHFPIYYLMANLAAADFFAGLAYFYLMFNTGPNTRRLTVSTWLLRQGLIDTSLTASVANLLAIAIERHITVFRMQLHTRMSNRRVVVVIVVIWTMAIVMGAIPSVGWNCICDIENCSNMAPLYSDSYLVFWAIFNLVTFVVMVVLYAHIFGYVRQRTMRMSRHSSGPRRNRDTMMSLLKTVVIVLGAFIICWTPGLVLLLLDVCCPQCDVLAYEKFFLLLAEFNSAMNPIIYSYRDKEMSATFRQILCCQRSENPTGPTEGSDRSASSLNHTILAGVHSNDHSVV

CN(C(=O)OCc1c(-c2ccc(C34CCC(CC(=O)O)(CC3)OC4)c(F)c2)nnn1C)C1CCCC1 [Example 6, 2-(4-(4-(5-(((Cyclopentyl(methyl)carbamoyl)oxy)methyl)-1-methyl-1H-1,2,3-triazol-4-yl)-2-fluorophenyl)-2-oxabicyclo[2.2.2]octan-1-yl)acetic acid]
IC50: 363 nM

CC(C)CCN(C)C(=O)OCc1c(-c2ccc(C34CCC(CC(=O)O)(CC3)OC4)cc2)cnn1C [Example 39, 2-(4-(4-(5-(((isopentyl(methyl)carbamoyl)oxy)methyl)-1-methyl-1H-pyrazol-4-yl)phenyl)-2-oxabicyclo[2.2.2]octan-1-yl)acetic acid]
IC50: 520 nM

Cc1cc(C23CCC(CC(=O)O)(CC2)OC3)ccc1-c1onc(C)c1NC(=O)O[C@H](C)c1ccccc1C (racemic) [Example 26, (±)-2-(4-(3-methyl-4-(3-methyl-4-((((R)-1-(o-tolyl)ethoxy)carbonyl)amino)isoxazol-5-yl)phenyl)-2-oxabicyclo[2.2.2]octan-1-yl)acetic acid]
IC50: 92 nM

Cc1ccccc1[C@@H](C)OC(=O)Nc1c(C)noc1-c1ccc(C23CCC(CC(=O)O)(CC2)OC3)c(F)c1 [Example 17, 2-(4-(2-fluoro-4-(3-methyl-4-((((R)-1-(o-tolyl)ethoxy)carbonyl)amino)isoxazol-5-yl)phenyl)-2-oxabicyclo[2.2.2]octan-1-yl)acetic acid]
IC50: 119 nM

CC(C1CC1)N(C)C(=O)OCc1c(-c2ccc(C34CCC(CC(=O)O)(CC3)OC4)cc2)cnn1C (racemic) [Example 36, (rac)-2-(4-(4-(5-((((1-cyclopropyl-ethyl)(methyl)carbamoyl)oxy)methyl)-1-methyl-1-pyrazol-4-yl)phenyl)-2-oxabicyclo[2.2.2]octan-1-yl)acetic acid]
IC50: 1890 nM

C[C@@H](OC(=O)Nc1c(-c2ccc(C34CCC(CC(=O)O)(CC3)OC4)cc2)cnn1C)c1ccccc1 [Example 2, 2-(4-(4-(1-methyl-5-((((R)-1-phenylethoxy)carbonyl)amino)-1H-pyrazol-4-yl)phenyl)-2-oxabicyclo[2.2.2]octan-1-yl)acetic acid]
IC50: 88 nM

Cc1noc(C23CCC(c4ccc(CC(=O)O)cc4)(CC2)OC3)c1NC(=O)O[C@H](C)c1ccccc1Cl [Example 56, (R)-2-(4-(4-(4-(((1-(2-chlorophenyl)ethoxy)carbonyl)amino)-3-methyl-isoxazol-5-yl)-2-oxabicyclo[2.2.2]octan-1-yl)phenyl)acetic acid]
IC50: 93 nM

CN(C(=O)OCc1c(-c2ccc(C34CCC(CC(=O)O)(CC3)OC4)c(F)c2)cnn1C)C1CCCC1 [Example 42, 2-(4-(4-(5-(((cyclopentyl(methyl)carbamoyl)oxy)methyl)-1-methyl-1H-pyrazol-4-yl)-2-fluorophenyl)-2-oxabicyclo[2.2.2]octan-1-yl)acetic acid]
IC50: 232 nM

2-(4-(4-(4-((((cyclobutylmethyl)(methyl)carbamoyl)oxy)methyl)-3-methylisoxazol-5-yl)phenyl)-2-oxabicyclo[2.2.2]octan-1-yl)acetic acid [Example 34]
IC50: 158 nM

Cc1noc(-c2ccc(C34CCC(CC(=O)O)(CC3)OC4)c(F)c2)c1NC(=O)O[C@H](C)c1ccccc1 [Example 57, 2-(4-(2-fluoro-4-(3-methyl-4-((((R)-1-phenylethoxy)carbonyl)amino)isoxazol-5-yl)phenyl)-2-oxabicyclo[2.2.2]octan-1-yl)acetic acid]
IC50: 41 nM

Cc1noc(-c2ccc(C34CCC(CC(=O)O)(CC3)OC4)cc2F)c1NC(=O)O[C@H](C)C1CC1 [Example 20, 2-(4-(4-(4-((((R)-1-cyclopropylethoxy)carbonyl)amino)-3-methylisoxazol-5-yl)-3-fluorophenyl)-2-oxabicyclo[2.2.2]octan-1-yl)acetic acid]
IC50: 863 nM

Cc1noc(-c2ccc(C34CCC(CC(=O)O)(CC3)OC4)cc2F)c1NC(=O)O[C@H](C)c1ccccc1 [Example 21, 2-(4-(3-fluoro-4-(3-methyl-4-((((R)-1-phenylethoxy)carbonyl)amino)isoxazol-5-yl)phenyl)-2-oxabicyclo[2.2.2]octan-1-yl)acetic acid]
IC50: 95 nM

Cc1noc(-c2ccc(C34CCC(CC(=O)O)(CC3)OC4)cc2)c1NC(=O)OC(C)c1cccc(Cl)c1 (racemic) [Example 15, (±)-2-(4-(4-(4-(((1-(3-chlorophenyl)ethoxy)carbonyl)amino)-3-methyl-isoxazol-5-yl)phenyl)-2-oxabicyclo[2.2.2]octan-1-yl)acetic acid]
IC50: 379 nM

CN(C(=O)OCc1c(-c2ccc(C34CCC(CC(=O)O)(CC3)OC4)cc2F)cnn1C)C1CCCC1 [Example 44, 2-(4-(4-(5-(((cyclopentyl(methyl)carbamoyl)oxy)methyl)-1-methyl-1H-pyrazol-4-yl)-3-fluorophenyl)-2-oxabicyclo[2.2.2]octan-1-yl)acetic acid]
IC50: 1860 nM

Cc1noc(-c2ccc(C34CCC(CC(=O)O)(CC3)CO4)c(F)c2)c1NC(=O)O[C@H](C)c1ccccc1 [Example 50, 2-(1-(2-fluoro-4-(3-methyl-4-((((R)-1-phenylethoxy)carbonyl)amino)isoxazol-5-yl)phenyl)-2-oxabicyclo[2.2.2]octan-4-yl)acetic acid]
IC50: 57 nM

Cc1ccccc1[C@@H](C)OC(=O)Nc1c(C)noc1-c1ccc(C23CCC(CC(=O)O)(CC2)OC3)cc1F [Example 23, 2-(4-(3-fluoro-4-(3-methyl-4-((((R)-1-(o-tolyl)ethoxy)carbonyl)amino)isoxazol-5-yl)phenyl)-2-oxabicyclo[2.2.2]octan-1-yl)acetic acid]
IC50: 98 nM

Cc1noc(-c2ccc(C34CCC(CC(=O)O)(CC3)OC4)cc2)c1COC(=O)N(C)C1CCCC1 [Example 3, 2-(4-(4-(4-(((cyclopentyl(methyl)carbamoyl)oxy)methyl)-3-methylisoxazol-5-yl)phenyl)-2-oxabicyclo[2.2.2]octan-1-yl)acetic acid]
IC50: 317 nM

Cc1noc(-c2ccc(C34CCC(CCC(=O)O)(CC3)CO4)cc2)c1NC(=O)O[C@H](C)c1ccccc1 [Example 58, 3-(1-(4-(3-methyl-4-((((R)-1-phenylethoxy)carbonyl)amino)isoxazol-5-yl)phenyl)-2-oxabicyclo[2.2.2]octan-4-yl)propanoic acid]
IC50: 157 nM

CN(CCc1ccc(Cl)cc1)C(=O)OCc1c(-c2ccc(C34CCC(CC(=O)O)(CC3)OC4)cc2)cnn1C [Example 41, 2-(4-(4-(5-((((4-chlorophenethyl)(methyl)carbamoyl)oxy)methyl)-1-methyl-1H-pyrazol-4-yl)phenyl)-2-oxabicyclo[2.2.2]octan-1-yl)acetic acid]
IC50: 2790 nM

C[C@@H](OC(=O)Nc1c(-c2ccc(C34CCC(CC(=O)O)(CC3)OC4)cc2)cnn1C)c1ccccc1Cl [Example 28, 2-(4-(4-(5-((((R)-1-(2-chlorophenyl)ethoxy)carbonyl)amino)-1-methyl-1H-pyrazol-4-yl)phenyl)-2-oxa-bicyclo[2.2.2]octan-1-yl)acetic acid]
IC50: 164 nM

C[C@@H](OC(=O)Nc1c(-c2ccc(C34CCC(C(=O)O)(CC3)OC4)cc2)cnn1C)c1ccccc1 [Example 9, (R)-4-(4-(1-methyl-5-(((1-phenylethoxy)carbonyl)amino)-1H-pyrazol-4-yl)phenyl)-2-oxabicyclo[2.2.2]octane-1-carboxylic acid]
IC50: 278 nM

Cc1noc(-c2cccc(C34CCC(CC(=O)O)(CC3)OC4)c2)c1NC(=O)O[C@H](C)c1ccccc1Cl [Example 59, 2-(4-(3-(4-((((R)-1-(2-chlorophenyl)ethoxy)carbonyl)amino)-3-methylisoxazol-5-yl)phenyl)-2-oxabicyclo[2.2.2]octan-1-yl)acetic acid]
IC50: 95 nM

CC(C1CCC1)N(C)C(=O)OCc1c(-c2ccc(C34CCC(CC(=O)O)(CC3)OC4)cc2)cnn1C (racemic) [Example 37, (rac)-2-(4-(4-(5-((((1-cyclobutyl-ethyl)(methyl)carbamoyl)oxy)methyl)-1-methyl-1H-pyrazol-4-yl)phenyl)-2-oxabicyclo[2.2.2]octan-1-yl)acetic acid]
IC50: 166 nM

Cc1noc(-c2ccc(C34CCC(CC(=O)O)(CC3)OC4)c(F)c2)c1NC(=O)O[C@H](C)C1CC1 [Example 16, 2-(4-(4-(4-((((R)-1-cyclopropylethoxy)carbonyl)amino)-3-methylisoxazol-5-yl)-2-fluorophenyl)-2-oxabicyclo[2.2.2]octan-1-yl)acetic acid]
IC50: 407 nM

Cc1noc(-c2ccc(C34CCC(CC(=O)O)(CC3)OC4)cc2F)c1NC(=O)O[C@H](C)c1ccccc1Cl [Example 22, 2-(4-(4-(4-((((R)-1-(2-chlorophenyl)ethoxy)carbonyl)amino)-3-methylisoxazol-5-yl)-3-fluorophenyl)-2-oxabicyclo[2.2.2]octan-1-yl)acetic acid]
IC50: 64 nM

Cc1noc(-c2ccc(C34CCC(CC(=O)O)(CC3)CO4)cc2)c1NC(=O)O[C@H](C)c1ccccc1Cl [Example 48, 2-(1-(4-(4-((((R)-1-(2-chlorophenyl)ethoxy)carbonyl)amino)-3-methyl-isoxazol-5-yl)phenyl)-2-oxabicyclo[2.2.2]octan-4-yl)acetic acid]
IC50: 354 nM
